What all share (assay type): cell-based, human
Test [1] relates to CD8+ T cells from one MM patient. Nature of the test: aAPC priming and tetramer staining, CD8+ T cells of an MM patient. As to conditions: T cells from an MM patient without previous T-cell reactivity for P2. The protocol:
(§1) For the generation of artificial antigen presenting cells (aAPC), 4×10^6 streptavidincoated polystyrene particles (Bangs Laboratories) per ml were resuspended in PBE (PBS/BSA/ETDA, Gibco/Sigma Aldrich/Lonza) containing 200 pM biotinylated MHCpeptide monomer and 20 nM anti-human biotinylated CD28 antibody and incubated at room temperature for 30 min. After washing, the aAPCs were stored at 4° C. prior to use. CD8^+ T cells from MM patients and HV were enriched by positive selection using magnetic cell sorting (Miltenyi Biotec). Stimulations were initiated in 96-well plates with 1×10^6 T cells plus 2×10^5 aAPCs in 200 μl T-cell medium complemented with 5 ng/ml human IL-12 (PromoKine). […] IL-2 (R&D Systems) were added on day 5. aAPC stimulation was repeated on day 10, for a total of 3 cycles.
(§2) The frequency of peptide-specific CD8^+ T cells was determined on a FACS Canto II cytometer (BD Bioscience) by staining with anti-CD8 (Biolegend) and HLA:peptidetetramer-PE as described previously. Staining with tetramers containing the CMV pp65 A*02 peptide NLVPMVATV (SEQ ID No. 236) served as positive control, tetramers containing irrelevant, non-primed A*02 restricted control peptides as negative controls. […]

Test [2] deals with CD8+ T cells from one healthy individual. The test can be described thus: aAPC priming and tetramer staining, CD8+ T cells of a healthy individual. The protocol:
as §1, §2

Test [3] deals with PBMC obtained from MM patients. Nature of the test: 12-day recall IFNγ ELISPOT with PBMC of MM patients. As to conditions: 12-day recall IFNγ ELISPOT, PBMC of MM patients, HLA class I peptide. The procedure: PBMC from MM patients and HVs were cultured as described previously. In brief, for CD8^+ T-cell stimulation, PBMC were pulsed with 1 μg/ml per peptide and cultured for 12 days adding IL-4 and IL-7 on day 0 and 1 as well as IL-2 on day 3, 5, 7 and 9. HLA-A*02 (KLFEKVKEV) (SEQ ID NO. 231) and B*07 (KPSEKIQVL) (SEQ ID NO. 232) restricted control peptides derived from benign tissues (HV-exclusive HLA ligands) served as negative control. Peptide-stimulated PBMC were analyzed by ELISPOT assays on day 12. For CD4^+ T-cell stimulation, culture was performed as described for CD8^+ T cells except for 2 modifications: pulsing was carried out with 10 μg/ml of HLA class II peptide and no IL-4 or IL-7 was added.
IFNγ ELISPOT assays were carried out as described previously. In brief, 96-well nitrocellulose plates (Millipore) were coated with […] IFNγ mAb (Mabtech) and incubated over night at 4° C. Plates were blocked with 10% human serum for 2 h at 37° C. 2.5×10^5 cells/well of pre-stimulated PBMC were pulsed with 1 μg/ml (HLA class I) or 2.5 μg/ml (HLA class II) peptide and incubated for 24-26 h. Readout was performed according to manufacturer's instructions. PHA was used as positive control. HLA-A*02 (KLFEKVKEV) (SEQ ID NO. 231) and B*07 (KPSEKIQVL) (SEQ ID NO. 232) restricted control peptides derived from benign tissues (HV-exclusive HLA ligands) served as negative control. Spots were counted using an ImmunoSpot S5 analyzer (CTL). T cell responses were considered to be positive when >10 spots/well were counted and the mean spot count per well was at least 3-fold higher than the mean number of spots in the negative control wells (according to the cancer immunoguiding program (CIP) guidelines).

In the case of “SLLEQGLVEA (listed as Homo sapiens) [SEQ ID NO: 177]”, the “P2-tetramer positive CD8+ T cells after priming” value in test [1] amounted to 0.236%. Also, the “P2-tetramer positive CD8+ T cells after in vitro priming” value in test [2] (HV-derived CD8+ T cells, 3 cycles of aAPC priming) was 0.403%. In addition, the “tetramer-positive T-cell populations ex vivo” value in test [2] (ex vivo, without priming) is on record as no more than 0.1%. For the same sequence, in test [3], the “specific T-cell recognition, MM patients positive/tested” value is given as 1/8 and the “specific T-cell recognition, share of MM patients” value was found to be 13%.

These data come from patent US10906938B2, “Cell epitopes and combination of cell epitopes for use in the immunotherapy of myeloma and other cancers” (Immatics Biotechnologies GmbH, priority 2015, dated 2021).
